{"source": "ChEMBL document CHEMBL5150057", "about": "“Making Protein Degradation Visible: Discovery of Theranostic PROTACs for Detecting and Degrading NAMPT” (J Med Chem, 2022)", "key": {"[1]": {"biological_target": "T1, Nicotinamide phosphoribosyltransferase (Homo sapiens, UniProt P43490)", "assay": "Inhibition of NAMPT catalytic domain (unknown origin) using NAM as substrate preincubated for 5 mins followed by substrate addition"}, "HUVEC": {"system": "HUVEC", "assay": "Cytotoxicity against HUVEC assessed as cell growth inhibition incubated for 72 hrs by CCK-8 assay", "format": "toxicity, cell-based", "conditions": "human"}, "A2780 [2]": {"system": "A2780", "assay": "Cytotoxicity against human A2780 cells assessed as cell growth inhibition incubated for 72 hrs by CCK-8 assay", "format": "functional, cell-based", "conditions": "A2780, 72 h"}, "[3]": {"assay": "Toxicity in BALB/c nude mouse xenografted with human A2780 cells at 30 mg/kg, ip administered once daily for 14 days by caliper method", "format": "organism-based", "conditions": "in vivo, 336 h, time 14 day"}, "[4]": {"biological_target": "T1, Nicotinamide phosphoribosyltransferase", "assay": "Induction of NAMPT degradation in human A2780 cells at 50 nM after 24 hrs by Western blot analysis", "format": "cell-based"}, "[5]": {"biological_target": "T1, Nicotinamide phosphoribosyltransferase", "assay": "Induction of NAMPT degradation in human A2780 cells at 30 nM after 24 hrs by Western blot analysis", "format": "cell-based"}, "[6]": {"biological_target": "T1, Nicotinamide phosphoribosyltransferase", "assay": "Induction of NAMPT degradation in human A2780 cells at 100 nM after 24 hrs by Western blot analysis", "format": "cell-based"}, "[7]": {"biological_target": "T1, Nicotinamide phosphoribosyltransferase", "assay": "Induction of NAMPT degradation in human A2780 cells at greater than 50 nM after 24 hrs by Western blot analysis", "format": "cell-based"}, "[8]": {"biological_target": "T1, Nicotinamide phosphoribosyltransferase", "assay": "Induction of NAMPT degradation in human A2780 cells at 30 nM", "format": "cell-based", "conditions": "time 1-24 hrs, TDE = time-dependent effect"}, "[9]": {"assay": "Half life in Sprague-Dawley rat at 30 mg/kg, ip measured upto 24 hrs by LC-MS/MS analysis", "format": "ADME, organism-based", "conditions": "in vivo"}, "[10]": {"assay": "Photostability of compound in PBS at pH 7.4", "format": "physicochemical", "conditions": "buffer"}, "Mus musculus": {"system": "Mus musculus", "assay": "In vivo induction of NAMPT degradation in human A2780 cells xenografted in BALB/c mouse at 10 to 30 mg/kg, ip administered once daily for 14 days by immunofluorescence analysis", "format": "functional, organism-based", "conditions": "dose 10-30 mg/kg, time 14.0 day"}, "[11]": {"biological_target": "T1, Nicotinamide phosphoribosyltransferase", "assay": "Induction of NAMPT degradation in human A2780 cells at 30 nM after 1 hr", "format": "cell-based"}, "[12]": {"biological_target": "T1, Nicotinamide phosphoribosyltransferase", "assay": "Induction of NAMPT degradation in human A2780 cells after 24 hrs by Western blot analysis", "format": "cell-based"}, "[13]": {"biological_target": "T1, Nicotinamide phosphoribosyltransferase", "assay": "Induction of NAMPT degradation in human A2780 cells at 30 nM incubated for 24 hrs in presence of MG132", "format": "cell-based"}, "[14]": {"assay": "Drug uptake in human A2780 cells at 500 nM within 1 to 6 hrs by immunostaining based assay", "format": "ADME, cell-based", "conditions": "a2780, 0.5 µM, time 1-6 hrs"}, "[15]": {"biological_target": "T1, Nicotinamide phosphoribosyltransferase", "assay": "Induction of NAMPT degradation in human A2780 cells at 30 nM after 24 hrs", "format": "cell-based"}, "[16]": {"assay": "Cmax in Sprague-Dawley rat at 30 mg/kg, ip measured upto 24 hrs by LC-MS/MS analysis", "format": "ADME, organism-based", "parameters": "dose 30 mg/kg, time < 24 hrs, route ip", "conditions": "in vivo"}, "[17]": {"assay": "AUC (0 to infinity) in Sprague-Dawley rat at 30 mg/kg, ip measured upto 24 hrs by LC-MS/MS analysis", "format": "ADME, organism-based", "parameters": "time < 24 hrs, dose 30 mg/kg, route ip", "conditions": "in vivo"}, "[18]": {"assay": "Tmax in Sprague-Dawley rat at 30 mg/kg, ip measured upto 24 hrs by LC-MS/MS analysis", "format": "ADME, organism-based", "conditions": "in vivo"}, "A2780 [19]": {"system": "A2780", "assay": "Antitumor activity against human A2780 cells xenografted in BALB/c nude mouse assessed as tumor growth inhibition at 30 mg/kg, ip administered once daily for 14 days by caliper method", "format": "functional", "conditions": "A2780, 336 h, time 14 day, read-out: TGI"}, "[20]": {"assay": "MRT (0 to infinity) in Sprague-Dawley rat at 30 mg/kg, ip measured upto 24 hrs by LC-MS/MS analysis", "format": "ADME, organism-based", "conditions": "in vivo"}, "[21]": {"assay": "Toxicity in BALB/c nude mouse xenografted with human A2780 cells at 10 to 30 mg/kg, ip administered once daily for 14 days by caliper method", "format": "organism-based", "conditions": "in vivo, 336 h, dose 10-30 mg/kg, time 14 day"}, "[22]": {"biological_target": "T1, Nicotinamide phosphoribosyltransferase", "assay": "Binding affinity to NAMPT in human A2780 cells assessed as change in melting temperature at 10 uM after 2 hrs by CESTA", "format": "cell-based"}, "A2780 [23]": {"system": "A2780", "assay": "Cytotoxicity against human A2780 cells assessed as cell growth inhibition incubated for 72 hrs in presence of (2S,4R)-1-(2-amino-3,3-dimethyl-butanoyl)-4-hydroxy-N-[(1S)-1-[4-(4-methylthiazol-5-yl)phenyl]ethyl]pyrrolidine-2-carboxamide by CCK-8 assay", "format": "functional, cell-based", "conditions": "A2780, 72 h"}, "[24]": {"biological_target": "von Hippel-Lindau disease tumor suppressor (Homo sapiens) (UniProt P40337)", "sequence (P40337 whole entry, looked up)": "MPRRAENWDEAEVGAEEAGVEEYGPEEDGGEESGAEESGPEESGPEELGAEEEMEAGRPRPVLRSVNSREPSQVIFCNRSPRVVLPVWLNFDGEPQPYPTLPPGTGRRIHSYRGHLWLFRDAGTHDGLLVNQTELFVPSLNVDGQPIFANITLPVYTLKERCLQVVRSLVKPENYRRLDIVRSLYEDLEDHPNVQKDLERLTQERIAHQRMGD", "assay": "Binding affinity to VHL in human A2780 cells assessed as change in melting temperature at 10 uM after 2 hrs by CESTA", "format": "cell-based"}, "[25]": {"biological_target": "T1, Nicotinamide phosphoribosyltransferase", "assay": "Binding affinity to NAMPT in human A2780 cells by flow cytometry analysis", "format": "cell-based", "conditions": "time 0.5-24 hrs"}, "A2780 [26]": {"system": "A2780", "assay": "Antitumor activity against human A2780 cells xenografted in BALB/c nude mouse assessed as tumor growth inhibition at 10 mg/kg, ip administered once daily for 14 days by caliper method", "format": "functional", "conditions": "A2780, 336 h, time 14 day, read-out: TGI"}, "A2780 [27]": {"system": "A2780", "assay": "Antitumor activity against human A2780 cells xenografted in ip dosed BALB/c nude mouse administered once daily for 14 days by caliper method", "format": "functional, organism-based", "conditions": "dose 10-30 mg/kg, time 14.0 day, DDE = dose-dependent effect"}, "[28]": {"assay": "Drug uptake in human A2780 cells at 1 uM after 30 mins by immunostaining based assay", "format": "ADME, cell-based", "conditions": "a2780, 0.5 h"}, "[29]": {"biological_target": "T1, Nicotinamide phosphoribosyltransferase", "assay": "Induction of NAMPT degradation in human A2780 cells assessed as downregulation of NAD+ levels at 4.1 nM incubated for 24 hrs […]", "format": "cell-based"}, "[30]": {"assay": "Drug uptake in human A2780 cells at 500 nM after 6 hrs by confocal imaging analysis", "format": "ADME, cell-based", "conditions": "a2780, 6 h, 0.5 µM"}, "[31]": {"assay": "Drug uptake in human A2780 cells at 500 nM within 1 to 6 hrs by confocal imaging analysis", "format": "ADME, cell-based", "conditions": "a2780, 0.5 µM, time 1-6 hrs"}}, "note": "Activity calls are given as the source filed them. No cut-off for these calls is given here.", "data": [{"smiles": "CCCn1c(=O)c(-c2ccc(C(=O)NCc3cccnc3)cc2)nc2ccccc21", "values": [{"measurement": "IC50", "setting": "[1]", "result": 57.8, "unit": "nM"}, {"measurement": "Activity", "setting": "HUVEC", "result": "Non-Toxic"}, {"measurement": "IC50", "setting": "A2780 [2]", "result": 99, "unit": "nM"}, {"measurement": "Activity", "setting": "[3]", "result": "Toxic"}]}, {"smiles": "CCCn1c(=O)c(-c2ccc(C(=O)NCc3cccnc3)cc2)nc2ccc(NC(=O)CCCCC(=O)N[C@H](C(=O)N3C[C@H](O)C[C@H]3C(=O)N[C@@H](C)c3ccc(-c4scnc4C)cc3)C(C)(C)C)cc21", "values": [{"measurement": "IC50", "setting": "A2780 [2]", "result": 88, "unit": "nM"}]}, {"smiles": "CCCn1c(=O)c(-c2ccc(C(=O)NCc3cccnc3)cc2)nc2ccc(NC(=O)CCCCCCCCC(=O)N[C@H](C(=O)N3C[C@H](O)C[C@H]3C(=O)N[C@@H](C)c3ccc(-c4scnc4C)cc3)C(C)(C)C)cc21", "values": [{"measurement": "Activity", "setting": "[4]", "result": "Active"}, {"measurement": "IC50", "setting": "A2780 [2]", "result": 14, "unit": "nM"}, {"measurement": "Activity", "setting": "[5]", "result": "Active"}]}, {"smiles": "CCCn1c(=O)c(-c2ccc(C(=O)NCc3cccnc3)cc2)nc2ccc(NC(=O)CCCCCCC(=O)N[C@H](C(=O)N3C[C@H](O)C[C@H]3C(=O)N[C@@H](C)c3ccc(-c4scnc4C)cc3)C(C)(C)C)cc21", "values": [{"measurement": "Activity", "setting": "[6]", "result": "Active"}, {"measurement": "IC50", "setting": "A2780 [2]", "result": 20.8, "unit": "nM"}, {"measurement": "Activity", "setting": "[5]", "result": "Active"}]}, {"smiles": "CCCn1c(=O)c(-c2ccc(C(=O)NCc3cccnc3)cc2)nc2ccc(NC(=O)CCCCCCCCCCC(=O)N[C@H](C(=O)N3C[C@H](O)C[C@H]3C(=O)N[C@@H](C)c3ccc(-c4scnc4C)cc3)C(C)(C)C)cc21", "values": [{"measurement": "Activity", "setting": "[7]", "result": "Active"}, {"measurement": "Activity", "setting": "[8]", "result": "Tde"}, {"measurement": "half-life", "setting": "[9]", "result": 9.81, "unit": "h"}, {"measurement": "Stability", "setting": "[10]", "result": "Stable"}, {"measurement": "Activity", "setting": "Mus musculus", "result": "Active"}, {"measurement": "Activity", "setting": "[11]", "result": "Active"}, {"measurement": "IC50", "setting": "[1]", "result": 41.9, "unit": "nM"}, {"measurement": "DC50", "setting": "[12]", "result": 8.4, "unit": "nM"}, {"measurement": "Activity", "setting": "[12]; DDE = dose-dependent effect", "result": "Dde"}, {"measurement": "Activity", "setting": "[13]", "result": "Active"}, {"measurement": "Drug uptake", "setting": "[14]", "result": "Active"}, {"measurement": "Activity", "setting": "[15]", "result": "Active"}, {"measurement": "Cmax", "setting": "[16]", "result": 175, "unit": "ng/mL"}, {"measurement": "Activity", "setting": "HUVEC", "result": "Non-Toxic"}, {"measurement": "AUC(0-inf)", "setting": "[17]", "result": 1110, "unit": "ng·h/mL"}, {"measurement": "Tmax", "setting": "[18]", "result": 4, "unit": "h"}, {"measurement": "inhibition in vivo at 30 mg/kg", "setting": "A2780 [19]", "result": 73, "unit": "%"}, {"measurement": "MRT inf", "setting": "[20]", "result": 12.7, "unit": "h"}, {"measurement": "Activity", "setting": "[21]", "result": "Non-Toxic"}, {"measurement": "IC50", "setting": "A2780 [2]", "result": 12.1, "unit": "nM"}, {"measurement": "ΔTm", "setting": "[22]", "result": 5.11, "unit": "°C"}, {"measurement": "Activity", "setting": "[5]", "result": "Active"}, {"measurement": "IC50", "setting": "A2780 [23]", "result": 100, "unit": "nM"}, {"measurement": "ΔTm", "setting": "[24]", "result": "> 2.62", "unit": "°C"}, {"measurement": "Activity", "setting": "[25]", "result": "Active"}, {"measurement": "inhibition in vivo at 10 mg/kg", "setting": "A2780 [26]", "result": 53, "unit": "%"}, {"measurement": "Activity", "setting": "A2780 [27]", "result": "Dde"}, {"measurement": "Drug uptake", "setting": "[28]", "result": "Active"}, {"measurement": "Activity", "setting": "[29]", "result": "Active"}]}, {"smiles": "CCCn1c(=O)c(-c2ccc(C(=O)NCc3cccnc3)cc2)nc2ccc(NC(=O)CCCCCCCCCCC(=O)N[C@H](C(=O)N3C[C@@H](O)C[C@@H]3C(=O)N[C@@H](C)c3ccc(-c4scnc4C)cc3)C(C)(C)C)cc21", "values": [{"measurement": "Drug uptake", "setting": "[30]", "result": "Active"}, {"measurement": "Drug uptake", "setting": "[31]", "result": "Active"}, {"measurement": "IC50", "setting": "A2780 [2]", "result": 143, "unit": "nM"}]}]}
